Results taken from US9637481B2 (RALEXAR THERAPEUTICS, INC., priority 2012, dated 2017).

Each molecule was assayed against T1, human LXRβ (AA 153-461) LBD (Homo sapiens, UniProt P55055) (assay: Gal4 LXRβ cotransfection assay (LXRβ Gal fusion assay)). Settings: HEK 293 cells, Gal4-responsive luciferase reporter, compounds 0.01-10 μM.
T1 construct: pM human LXRβ (AA 153-461) LBD plasmid; expressed in transfected cells; host or cells: HEK 293
T1 sequence (P55055 153-460 limits assumed): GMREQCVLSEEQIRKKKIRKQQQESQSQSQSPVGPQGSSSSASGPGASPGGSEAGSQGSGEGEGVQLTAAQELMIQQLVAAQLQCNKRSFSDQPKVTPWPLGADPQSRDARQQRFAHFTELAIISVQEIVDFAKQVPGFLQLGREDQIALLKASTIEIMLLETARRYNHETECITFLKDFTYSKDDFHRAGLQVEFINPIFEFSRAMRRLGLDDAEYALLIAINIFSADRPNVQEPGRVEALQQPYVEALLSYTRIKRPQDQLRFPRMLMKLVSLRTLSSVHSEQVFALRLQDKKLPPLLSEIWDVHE
Assay type: cell-based
Protocol: For transient transfection of HEK 293 cells, 6×10^3 cells were plated into 96-well dishes. Each well was transfected with 25 ng 5×UAS-luciferase reporter (pG5luc) and 25 ng of pM human LXRβ (AA 153-461) LBD plasmid using Fugene 6 reagent (Roche; Indianapolis, Ind.). The chimeric protein was assessed for the ability to transactivate a Gal4-responsive luciferase reporter plasmid in a concentration-responsive manner to compounds (0.01-10 μM). Luciferase activity at each dose concentration was measured in triplicate using standard substrate reagents (BD Biosciences; San Diego, Calif.). Data are expressed as relative light units and are shown below in Table 1.

EC50 [nM] | SMILES
> 10000 | CS(=O)(=O)c1cccc(-c2ccc(-c3cc(C(F)(F)F)nn3CC(=O)O)cc2)c1 [Compound 38, 2-(5-(3′-(methylsulfonyl)-[1,1′-biphenyl]-4-yl)-3-(trifluoromethyl)-1H-pyrazol-1-yl)acetic acid]
1000 to 10000 | CSCOC(=O)Cn1nc(C(F)(F)F)cc1-c1ccc(-c2cccc(S(C)(=O)=O)c2)cc1 [Compound 41, methylthiomethyl 2-(5-(3′-(methylsulfonyl)biphenyl-4-yl)-3-(trifluoromethyl)-1H-pyrazol-1-yl)acetate]
> 10000 | CS(=O)(=O)c1cccc(-c2nnc(-c3cc(C(=O)O)nn3-c3ccccc3Cl)o2)c1 [Compound 12, 1-(2-chlorophenyl)-5-(5-(3-(methylsulfonyl)phenyl)-1,3,4-oxadiazol-2-yl)-1H-pyrazole-3-carboxylic acid]
< 1000 | CCOC(=O)Cn1nc(C(F)(F)F)cc1-c1ccc(-c2ccc(CO)c(S(C)(=O)=O)c2)cc1 [Compound 51, ethyl 2-(5-(4′-(hydroxymethyl)-3′-(methylsulfonyl)biphenyl-4-yl)-3-(trifluoromethyl)-1H-pyrazol-1-yl)acetate]
> 10000 | COC(=O)Cn1nc(C(F)(F)F)cc1-c1ccc(-c2cccc(S(C)(=O)=O)c2)s1 [Compound 18, methyl 2-(5-(5-(3-(methylsulfonyl)phenyl)thiophen-2-yl)-3-(trifluoromethyl)-1H-pyrazol-1-yl)acetic acid]
1000 to 10000 | COC(=O)c1cc(-c2nnc(-c3cccc(S(C)(=O)=O)c3)s2)n(-c2ccccc2Cl)n1 [Compound 9, methyl 1-(2-chlorophenyl)-5-(5-(3-(methylsulfonyl)phenyl)-1,3,4-thiadiazol-2-yl)-1H-pyrazole-3-carboxylate]

The remaining lines, values behind:

SMILES | EC50 [nM]
CCOC(=O)Cn1nc(C(F)(F)F)cc1-c1ccc(-c2cccc(S(C)(=O)=O)c2)s1 [Compound 16, ethyl 2-(5-(5-(3-(methylsulfonyl)phenyl)thiophen-2-yl)-3-(trifluoromethyl)-1H-pyrazol-1-yl)acetate] | < 1000
CC(C)OC(=O)Cn1nc(C(F)(F)F)cc1-c1ccc(-c2cccc(S(C)(=O)=O)c2)s1 [Compound 49] | < 1000
CCOC(=O)Cn1nc(C(F)(F)F)cc1-c1ccc(-c2ccc(CO)c(S(C)(=O)=O)c2)s1 [Compound 50, ethyl 2-(5-(5-(4-(hydroxymethyl)-3-(methylsulfonyl)phenyl)thiophen-2-yl)-3-(trifluoromethyl)-1H-pyrazol-1-yl)acetate] | < 1000
CS(=O)(=O)c1cccc(-c2nnc(-c3cc(C(=O)O)nn3-c3ccccc3Cl)s2)c1 [Compound 10, 1-(2-chlorophenyl)-5-(5-(3-(methylsulfonyl)phenyl)-1,3,4-thiadiazol-2-yl)-1H-pyrazole-3-carboxylic acid] | > 10000
CCOC(=O)Cn1nc(C(F)(F)F)cc1-c1ccc(-c2cccc(S(C)(=O)=O)c2)cc1 [Compound 36, ethyl 2-(5-(3′-(methylsulfonyl)-[1,1′-biphenyl]-4-yl)-3-(trifluoromethyl)-1H-pyrazol-1-yl)acetate] | < 1000
CS(=O)(=O)c1cccc(-c2ccc(-c3cc(C(F)(F)F)nn3CC(=O)OCCl)s2)c1 [Compound 52, chloromethyl 2-(5-(5-(3-(methylsulfonyl)phenyl)thiophen-2-yl)-3-(trifluoromethyl)-1H-pyrazol-1-yl)acetate] | < 1000
COC(=O)c1cc(-c2nnc(-c3cccc(S(C)(=O)=O)c3)o2)n(-c2ccccc2Cl)n1 [Compound 11, methyl 1-(2-chlorophenyl)-5-(5-(3-(methylsulfonyl)phenyl)-1,3,4-oxadiazol-2-yl)-1H-pyrazole-3-carboxylate] | < 1000
